From patent US12617773B2, “Azetidin-3-ylmethanol derivatives as CCR6 receptor modulators” (Idorsia Pharmaceuticals Ltd, priority 2020, dated 2026)
pIC50: −log10 of the molar value.

The compounds below were run against T1, human CCR6 (Homo sapiens, UniProt P51684) (assay: FLIPR assay (inhibition of CCL20-induced calcium signal)). Conditions: FLIPR IC50 (nM), HEK-293 cells expressing human CCR6; mean values where determined several times.
T1 construct: expressed in transfected cells; host or cells: HEK-293
T1 sequence (P51684 1-374): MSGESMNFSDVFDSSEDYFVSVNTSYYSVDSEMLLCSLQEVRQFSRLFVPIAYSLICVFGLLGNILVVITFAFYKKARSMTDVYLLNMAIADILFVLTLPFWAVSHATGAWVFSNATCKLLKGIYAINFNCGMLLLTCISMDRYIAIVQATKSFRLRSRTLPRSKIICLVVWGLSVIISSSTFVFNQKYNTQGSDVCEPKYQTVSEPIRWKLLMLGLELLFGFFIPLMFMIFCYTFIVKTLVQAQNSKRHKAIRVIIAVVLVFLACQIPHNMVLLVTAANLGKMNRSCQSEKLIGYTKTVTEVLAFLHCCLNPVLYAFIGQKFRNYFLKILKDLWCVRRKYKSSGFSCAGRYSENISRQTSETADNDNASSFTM
Assay type: cell-based
Outline: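 Dye-loaded HEK-293 cells expressing human CCR6 were preincubated with compound for 30 min at room temperature in the dark, then challenged with 10 nM CCL20 (final). Fluorescence was tracked on FLIPR, and baseline-subtracted peak emission over base after agonist addition gave inhibition dose-response curves for IC50.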

Row | Structure (SMILES) | IC50
1 | CC(C)c1ccc([C@](O)(c2cncc(N3C4CCC3CC4)c2)C2(C)CN(C)C2)cc1 [Example 177] | 284 nM

Same assay, conditions: HEK-293 cells expressing human CCR6; mean values where determined several times; read-out: FLIPR IC50

Row | pIC50 | Structure (SMILES)
2 | 7.36 | CC(C)c1ccc([C@](O)(c2ccnc(N3CCC(F)(F)C3)c2)C2(C)CN(C)C2)cc1 [Example 162, (S)-[2-(3,3-Difluoro-pyrrolidin-1-yl)-pyridin-4-yl]-(1,3-dimethyl-azetidin-3-yl)-(4-isopropyl-phenyl)-methanol]
3 | 7.61 | CC(C)c1ccc([C@](O)(c2ccnc(N3C[C@@H](F)[C@@H](F)C3)c2)C2(C)CN(C)C2)cc1 [Example 163, (S)-[2-((3R,4S)-3,4-Difluoro-pyrrolidin-1-yl)-pyridin-4-yl]-(1,3-dimethyl-azetidin-3-yl)-(4-isopropyl-phenyl)-methanol]
4 | 6.17 | CC(C)c1ccc([C@](O)(c2ccnc(CCC(C)(C)O)c2)C2(C)CN(C)C2)cc1 [Example 165, 4-{4-[(S)-(1,3-Dimethyl-azetidin-3-yl)-hydroxy-(4-isopropyl-phenyl)-methyl]-pyridin-2-yl}-2-methyl-butan-2-ol]
5 | 7.07 | CC(C)c1ccc([C@](O)(c2cnnc(N3CCC(F)(F)C3)c2)C2(C)CN(C)C2)cc1 [Example 166, (R)-[6-(3,3-Difluoro-pyrrolidin-1-yl)-pyridazin-4-yl]-(1,3-dimethyl-azetidin-3-yl)-(4-isopropyl-phenyl)-methanol]
6 | 6.88 | CC(C)c1ccc([C@](O)(c2cncc(N3CC[C@H](CO)C3)c2)C2(C)CN(C)C2)cc1 [Example 170]
7 | 7.11 | CC(C)c1ccc([C@](O)(c2cncc(N3CCC(O)(C4CC4)C3)c2)C2(C)CN(C)C2)cc1 (stereo partly shown) [Example 173]
8 | 7.41 | CC(C)c1ccc([C@](O)(c2cncc(N3CCCCC3)c2)C2(C)CN(C)C2)cc1 [Example 176]
9 | 7.32 | CC(C)c1ccc([C@](O)(c2cncc(N3CCC[C@@H]3C)c2)C2(C)CN(C)C2)cc1 [Example 178]
10 | 7.19 | CC(C)c1ccc([C@](O)(c2cncc(N3CCC(O)(C(F)(F)F)C3)c2)C2(C)CN(C)C2)cc1 (stereo partly shown) [Example 179]
11 | 7.25 | CC(C)c1ccc([C@](O)(c2cncc(N3CCC(F)(F)C3)c2)C2(C)CN(C)C2)cc1 [Example 180]
12 | 6.53 | CC(C)c1ccc([C@](O)(c2cncc(N3CCC(O)CC3)c2)C2(C)CN(C)C2)cc1 [Example 181]
13 | 7.06 | CC(C)c1ccc([C@](O)(c2cncc(N3CCCC(O)C3)c2)C2(C)CN(C)C2)cc1 (stereo partly shown) [Example 182]
14 | 7.50 | CC(C)c1ccc([C@](O)(c2cncc(N(C)CCOCc3ccccc3)c2)C2(C)CN(C)C2)cc1 [Example 183]
15 | 7.78 | CN1CC(C)([C@](O)(c2ccc(C3(C)CC3)cc2)c2cncc(N3CCCC3)c2)C1 [Example 184]
16 | 7.55 | CN1CC(C)([C@](O)(c2ccc(C3(C(F)(F)F)CC3)cc2)c2cncc(N3C[C@@H](F)[C@@H](F)C3)c2)C1 [Example 185]
17 | 7.36 | CN1CC(C)([C@](O)(c2ccc(C3(C(F)(F)F)CC3)cc2)c2cncc(N3CC[C@H](C(C)(C)O)C3)c2)C1 [Example 186]
18 | 7.80 | CN1CC(C)([C@](O)(c2ccc(C3(C(F)(F)F)CC3)cc2)c2cncc(N3CCCC3)c2)C1 [Example 187]
19 | 7.63 | CN1CC(C)([C@](O)(c2ccc(C(C)(C)C)cc2)c2cncc(N3CCCCC3)c2)C1 [Example 188]
20 | 7.42 | CC(C)c1ccc([C@](O)(c2cncc(-c3noc(C4CCN(S(=O)(=O)C5CC5)CC4)n3)c2)C2(C)CN(C)C2)cc1 [Example 190, (R)-{5-[5-(1-Cyclopropanesulfonyl-piperidin-4-yl)-[1,2,4]oxadiazol-3-yl]-pyridin-3-yl}-(1,3-dimethyl-azetidin-3-yl)-(4-isopropyl-phenyl)-methanol]
21 | 6.50 | CC(C)c1ccc([C@](O)(c2cncc(N(C)CCO)c2)C2(C)CN(C)C2)cc1 [Example 191, 2-({5-[(R)-(1,3-Dimethyl-azetidin-3-yl)-hydroxy-(4-isopropyl-phenyl)-methyl]-pyridin-3-yl}-methyl-amino)-ethanol]
22 | 7.69 | CC(C)c1ccc([C@](O)(c2cncc(N3CC(c4ccccc4)OC3=O)c2)C2(C)CN(C)C2)cc1 (stereo partly shown) [Example 194]
23 | 7.53 | CC(C)c1ccc([C@](O)(c2cncc(N3CC(Cc4ccccc4)OC3=O)c2)C2(C)CN(C)C2)cc1 (stereo partly shown) [Example 195]
24 | 7.17 | CC(C)c1ccc([C@](O)(c2cncc(N3CC(C(C)C)OC3=O)c2)C2(C)CN(C)C2)cc1 (stereo partly shown) [Example 196]
25 | 6.97 | CC(C)c1ccc([C@](O)(c2cncc(N3CC4(CC4)OC3=O)c2)C2(C)CN(C)C2)cc1 [Example 197]
26 | 7.15 | CC(C)c1ccc([C@](O)(c2cncc(N3CC4(CCCC4)OC3=O)c2)C2(C)CN(C)C2)cc1 [Example 198]
27 | 6.31 | CC(C)c1ccc([C@](O)(c2cncc(N3CC(C4CCOCC4)OC3=O)c2)C2(C)CN(C)C2)cc1 (stereo partly shown) [Example 199]
28 | 6.39 | CC(C)c1ccc([C@](O)(c2cncc(N3CC(C)(C)OC3=O)c2)C2(C)CN(C)C2)cc1 [Example 200]

Row | pIC50 | Structure (SMILES)
29 | 6.80 | CC(C)c1ccc([C@](O)(c2cncc(N3CC4(CCC(F)(F)CC4)OC3=O)c2)C2(C)CN(C)C2)cc1 [Example 201]
30 | 7.52 | CC(C)c1ccc([C@](O)(c2cncc(N3CC4(CC5(CCC5)C4)OC3=O)c2)C2(C)CN(C)C2)cc1 [Example 202]
31 | 7.19 | CC(C)c1ccc([C@](O)(c2cncc(N3CC4(CC(C5CC5)C4)OC3=O)c2)C2(C)CN(C)C2)cc1 (stereo partly shown) [Example 203]
32 | 7.32 | CC(C)c1ccc([C@](O)(c2cncc(N3CC4(CC(C)(C)C4)OC3=O)c2)C2(C)CN(C)C2)cc1 [Example 204]
33 | 7.57 | CC(C)c1ccc([C@](O)(c2cncc(N3CC(c4ccccc4)CC3=O)c2)C2(C)CN(C)C2)cc1 (stereo partly shown) [Example 205]
34 | 7.42 | CC(C)c1ccc([C@](O)(c2cncc(N3CCC(C(C)C)C3=O)c2)C2(C)CN(C)C2)cc1 (stereo partly shown) [Example 208]
35 | 6.69 | CC(C)c1ccc([C@](O)(c2cncc(N3CC(C)(C)CC3=O)c2)C2(C)CN(C)C2)cc1 [Example 209]
36 | 7.30 | CC(C)c1ccc([C@](O)(c2cncc(N3CC4(CCCC4)CC3=O)c2)C2(C)CN(C)C2)cc1 [Example 211]
37 | 7.15 | CC(C)c1ccc([C@](O)(c2cncc(N3CCC4(CCC4)C3=O)c2)C2(C)CN(C)C2)cc1 [Example 212]
38 | 6.34 | CC(C)c1ccc([C@](O)(c2cncc(N3CC4(CCOCC4)CC3=O)c2)C2(C)CN(C)C2)cc1 [Example 213]
39 | 6.74 | CC(C)c1ccc([C@](O)(c2cncc(N3CCC(C4CCOCC4)C3=O)c2)C2(C)CN(C)C2)cc1 (stereo partly shown) [Example 214]
40 | 7.29 | CC(C)c1ccc([C@](O)(c2cncc(N3CCC4(CCCCC4)C3=O)c2)C2(C)CN(C)C2)cc1 [Example 215]
41 | 6.32 | CC(C)c1ccc([C@](O)(c2cncc(N3CCC4(CCOCC4)C3=O)c2)C2(C)CN(C)C2)cc1 [Example 216]
42 | 7.36 | CC(C)C[C@H]1CC(=O)N(c2cncc([C@@](O)(c3ccc(C(C)C)cc3)C3(C)CN(C)C3)c2)C1 [Example 217]
43 | 7.22 | CC(C)c1ccc([C@](O)(c2cncc(N3CC(C4CC4)CC3=O)c2)C2(C)CN(C)C2)cc1 (stereo partly shown) [Example 218]
44 | 6.87 | CC(C)c1ccc([C@](O)(c2cncc(N3CC(C(F)(F)F)CC3=O)c2)C2(C)CN(C)C2)cc1 (stereo partly shown) [Example 219]
45 | 6.67 | COCCC1CCN(c2cncc([C@@](O)(c3ccc(C(C)C)cc3)C3(C)CN(C)C3)c2)C1=O (stereo partly shown) [Example 220]
46 | 6.46 | COCCC1CC(=O)N(c2cncc([C@@](O)(c3ccc(C(C)C)cc3)C3(C)CN(C)C3)c2)C1 (stereo partly shown) [Example 221]
47 | 6.79 | CC(C)c1ccc([C@](O)(c2cnnc(N3CCCC3=O)c2)C2(C)CN(C)C2)cc1 [Example 222, 1-{5-[(R)-(1,3-Dimethyl-azetidin-3-yl)-hydroxy-(4-isopropyl-phenyl)-methyl]-pyridazin-3-yl}-pyrrolidin-2-one]
48 | 7.54 | CC(C)c1ccc(C(O)(c2cncc(N3CC[C@H](C(C)C)C3)c2)C2(C)CN(C)C2)cc1 (stereo partly drawn) [Example 223, (1,3-Dimethyl-azetidin-3-yl)-(4-isopropyl-phenyl)-[5-((R)-3-isopropyl-pyrrolidin-1-yl)-pyridin-3-yl]-methanol]
49 | 7.31 | CC(C)c1ccc([C@](O)(c2cncc(N3C[C@@H](C)O[C@@H](C)C3)c2)C2(C)CN(C)C2)cc1 [Example 224]
50 | 7.35 | CC(C)c1ccc([C@](O)(c2cncc(N3C[C@H](C)O[C@@H](C)C3)c2)C2(C)CN(C)C2)cc1 [Example 228]
51 | 7.23 | CC(C)c1ccc([C@](O)(c2cncc(N3C[C@@H](C)O[C@H](C)C3)c2)C2(C)CN(C)C2)cc1 [Example 229]
52 | 7.44 | Cc1noc(C2CCN(c3cncc([C@@](O)(c4ccc(C(C)C)cc4)C4(C)CN(C)C4)c3)C2)n1 (stereo partly shown) [Example 230]
53 | 7.83 | Cc1csc(C2CCN(c3cncc([C@@](O)(c4ccc(C(C)C)cc4)C4(C)CN(C)C4)c3)C2)n1 (stereo partly shown) [Example 231]
54 | 7.33 | CC(C)c1ccc([C@](O)(c2cncc(N3CCC(c4ccccc4)C3)c2)C2(C)CN(C)C2)cc1 (stereo partly shown) [Example 232]

Row | Structure (SMILES) | pIC50
55 | CC(C)COc1cc([C@@](O)(c2ccc(C(C)C)cc2)C2(C)CN(C)C2)ccn1 [Example 164, (S)-(1,3-Dimethyl-azetidin-3-yl)-(2-isobutoxy-pyridin-4-yl)-(4-isopropyl-phenyl)-methanol] | 7.72
